Read-outs that look alike come from different tables or passages of the source.
Tests used:
[1] = target: recombinant human BACE-1 protein (Homo sapiens (Human), UniProt P56817); experiment: Measurement of Inhibition of β-Secretase Activity; type: biochemical; conditions: 3 h at 30° C., pH5.0, read-out: IC50 value
Outline: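 Recombinant human BACE-1 incubated with compound and Eu-cryptate-labelled biotinylated peptide substrate 3 h at 30° C in 50 mM sodium acetate pH 5.0, 0.008% Triton X-100. Streptavidin-XL665 in KF-containing phosphate buffer pH 7.0 then added, 1 h at 30° C, for time-resolved FRET read-out.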

[2] = fluorescence-quenched peptide substrate 18 nM, BACE-1 7.4 nM
[3] = recombinant human BACE-1 protein

Sequence of recombinant human BACE-1 protein (P56817 46-501): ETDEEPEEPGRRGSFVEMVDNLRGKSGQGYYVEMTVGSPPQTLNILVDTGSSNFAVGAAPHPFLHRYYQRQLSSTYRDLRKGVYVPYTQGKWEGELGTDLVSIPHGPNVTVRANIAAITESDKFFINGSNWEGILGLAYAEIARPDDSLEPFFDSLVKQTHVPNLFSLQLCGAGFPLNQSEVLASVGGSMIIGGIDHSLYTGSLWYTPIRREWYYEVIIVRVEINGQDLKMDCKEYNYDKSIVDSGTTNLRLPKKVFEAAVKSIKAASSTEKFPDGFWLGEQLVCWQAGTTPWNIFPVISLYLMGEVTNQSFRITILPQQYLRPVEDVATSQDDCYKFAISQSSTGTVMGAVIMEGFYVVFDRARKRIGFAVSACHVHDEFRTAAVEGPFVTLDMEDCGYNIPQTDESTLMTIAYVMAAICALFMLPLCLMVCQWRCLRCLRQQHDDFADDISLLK

Row | Compound | melting point | IC50 [1, 2] | IC50 [1, 3]
1 | CC1(c2ccc(Oc3ccc(Br)cc3)cc2)CCSC(N)=N1 (stereo not drawn) [Compound 735] | 166 to 168 °C | < 100 µM | –
2 | Cl.NC1=NC(c2cccc(NC(=O)c3ccc(Cl)cn3)c2)CCS1 (stereo not drawn) [Compound 740] | 250 °C (dec.) | – | 0.505 µM
3 | Cc1ccccc1C1(C)CCSC(N)=N1 (stereo not drawn) [Compound 756] | 110 to 111 °C | < 100 µM | –
4 | Cc1ccc2cc(C3(C)CCSC(N)=N3)ccc2c1 (stereo not drawn) [Compound 758] | 156 to 157 °C | < 100 µM | –
5 | CC1(c2cccc(NC(=O)c3ccc(Cl)cn3)c2)CCSC(N)=N1.Cl (stereo not drawn) [Compound 793] | 269 °C (dec.) | – | 0.061 µM
6 | CO/N=C/c1cccc(C2(C)CCSC(N)=N2)c1 (stereo not drawn) [Compound 804] | 135 to 136 °C | < 100 µM | –
7 | CC1(c2cccc(NC(=O)c3ccc(Cl)cn3)c2Cl)CCSC(N)=N1 (stereo not drawn) [Compound 813] | 204 to 205 °C | < 100 µM | –
8 | CC1(c2ccccc2)CC(c2ccccc2)SC(N)=N1 (stereo not drawn) [Compound 835] | 139 to 140 °C | < 100 µM | –
9 | COc1ccc2cc(C3(C)CCSC(N)=N3)ccc2c1 (stereo not drawn) [Compound 871] | 212 to 213 °C | < 100 µM | –
10 | CC1(c2cc(NC(=O)c3ccc(C(F)(F)F)cn3)cc(C(F)(F)F)c2)CCSC(N)=N1 (stereo not drawn) [Compound 897] | 212 to 214 °C | – | 0.816 µM
11 | CC1(c2cccc(SC(=O)c3ncc(Br)cn3)c2)CCSC(N)=N1 (stereo not drawn) [Compound 900] | 205 to 207 °C | < 100 µM | –
12 | CC1(c2cccc(NC(=O)c3ccc4ccccc4n3)c2)CCSC(N)=N1 (stereo not drawn) [Compound 935] | 161 to 165 °C | < 100 µM | –
13 | COc1ccc(CCCOc2cccc(C3(C)CCSC(N)=N3)c2)cc1.Cl (stereo not drawn) [Compound 936] | 169 to 170 °C | < 100 µM | –
14 | CC1(c2cc(NC(=O)c3ccc(Cl)cn3)cc(C(F)(F)F)c2)CCSC(N)=N1 (stereo not drawn) [Compound 964] | 185 to 187 °C | – | 0.264 µM
15 | CC1(c2cccc(COc3ccccc3)c2)CCSC(N)=N1 (stereo not drawn) [Compound 990] | 126 to 129 °C | < 100 µM | –
16 | CC(C)c1ccc(C(=O)Nc2cccc(C3(C)CCSC(N)=N3)c2)nc1 (stereo not drawn) [Compound 1005] | 191 to 193 °C | < 100 µM | –
17 | CC1(c2cccc(OCCCc3ccccc3)c2)CCSC(N)=N1 (stereo not drawn) [Compound 1010] | 90 to 91 °C | – | 2.8 µM
18 | CC1(c2cc(Br)cc(NC(=O)c3cc4ccccc4s3)c2)CCSC(N)=N1.Cl (stereo not drawn) [Compound 1014] | 206 to 210 °C | – | 0.165 µM
19 | CC1(c2cccc(COc3ccc(Cl)cc3)c2)CCSC(N)=N1 (stereo not drawn) [Compound 1028] | 105 to 106 °C | < 100 µM | –
20 | COc1cc(NC(=O)c2ccc(Cl)cn2)cc(C2(C)CCSC(N)=N2)c1.Cl (stereo not drawn) [Compound 1035] | 247 to 251 °C (dec.) | – | 0.174 µM
21 | CC1(c2ccc(Oc3ccccc3)cc2)CCSC(N)=N1 (stereo not drawn) [Compound 1055] | 169 to 170 °C | < 100 µM | –

Row | Compound | melting point | IC50 [1, 2] | IC50 [1, 3]
22 | CC1(c2ccc(Cl)cc2)CCSC(N)=N1 (stereo not drawn) [Compound 1062] | 136 to 137 °C | < 100 µM | –
23 | CC1(c2ccc(F)c(OCCCc3ccccc3)c2)CCSC(N)=N1.Cl (stereo not drawn) [Compound 1069] | 194 to 196 °C | < 100 µM | –
24 | CC1(c2ccc3c(c2)CCO3)CCSC(N)=N1 (stereo not drawn) [Compound 1084] | 146 to 149 °C | < 100 µM | –
25 | CC1(c2cccc(/C=C/C(=O)Nc3ccccc3)c2)CCSC(N)=N1 (stereo not drawn) [Compound 1109] | 134 to 140 °C | < 100 µM | –
26 | COc1ccc(NC(=O)/C=C(\Cl)c2cccc(C3(C)CCSC(N)=N3)c2)cc1 (stereo not drawn) [Compound 1114] | 121 to 124 °C | < 100 µM | –
27 | CC1(c2ccc(C(=O)NCc3ccccc3)s2)CCSC(N)=N1 (stereo not drawn) [Compound 1124] | 169 to 172 °C | < 100 µM | –
28 | CC1(c2ccc(F)c(C(=O)Nc3ccc(Cl)cn3)c2)CCSC(N)=N1 (stereo not drawn) [Compound 1125] | 195 to 198 °C | < 100 µM | –
29 | CC1(c2cccc(NC(=O)c3ccc(N4CCOCC4)cn3)c2)CCSC(N)=N1 (stereo not drawn) [Compound 1131] | 189 to 191 °C | < 100 µM | –
30 | CC1(c2cc(Br)cc(NC(=O)c3ccno3)c2)CCSC(N)=N1.Cl (stereo not drawn) [Compound 1132] | 175 to 180 °C (dec.) | – | 2.56 µM
31 | CC(C)Oc1cc(NC(=O)c2ccc(Cl)cn2)cc(C2(C)CCSC(N)=N2)c1.Cl (stereo not drawn) [Compound 1135] | 255 to 260 °C (dec.) | – | 2.3 µM
32 | CC1(c2cccc(/C(Cl)=C/C(=O)Nc3ccc(Cl)cn3)c2)CCSC(N)=N1 (stereo not drawn) [Compound 1142] | 182 to 186 °C (dec.) | < 100 µM | –
33 | CC1(c2cccc(CNC(=O)c3ccc(Cl)cc3)c2)CCSC(N)=N1.Cl (stereo not drawn) [Compound 1184] | 149 to 150 °C | < 100 µM | –
34 | CC1(c2cccc(/C=N/OCc3ccccn3)c2)CCSC(N)=N1 (stereo not drawn) [Compound 1193] | 182 to 183 °C | < 100 µM | –
35 | COCc1cc(NC(=O)c2ccc(Br)cc2)cc(C2(C)CCSC(N)=N2)c1.Cl (stereo not drawn) [Compound 1197] | 250 to 255 °C (dec.) | – | 0.912 µM
36 | CC1(c2cc(NC(=O)c3ccc(Cl)cn3)ccc2Cl)CCSC(N)=N1.Cl (stereo not drawn) [Compound 1199] | 274 to 283 °C | – | 0.032 µM
37 | CC1(c2cccc(OCCCc3ccc(Cl)cc3)c2)CCSC(N)=N1 (stereo not drawn) [Compound 1207] | 106 to 108 °C | – | 4 µM
38 | CC1(c2cc(NC(=O)c3ccc(Cl)cn3)cc(C(=O)Nc3ccccc3)c2)CCSC(N)=N1 (stereo not drawn) [Compound 1217] | 263 to 266 °C | < 100 µM | –
39 | CC1(c2cccc(CNC(=O)c3ccc(F)cc3)c2)CCSC(N)=N1.Cl (stereo not drawn) [Compound 1241] | 194 to 195 °C | < 100 µM | –
40 | CC1(c2cccc(NC(=O)c3ccc(C(F)(F)F)cn3)c2)CCSC(N)=N1.Cl (stereo not drawn) [Compound 1244] | 268 to 288 °C | – | 0.13 µM
41 | CC1(c2cccc(/C=C\CCc3ccc(Cl)cc3)c2)CCSC(N)=N1.Cl (stereo not drawn) [Compound 1261] | 179 to 180 °C | < 100 µM | –
42 | CC1(c2cc(Br)cc(NC(=O)c3ccc(Br)cc3)c2)CCSC(N)=N1.Cl (stereo not drawn) [Compound 1262] | 278 to 281 °C | – | 0.14 µM
